In assay [1] the target is T1, Aldo-keto reductase family 1 member C3 (Homo sapiens, UniProt P42330).
T1 sequence (P42330 whole entry): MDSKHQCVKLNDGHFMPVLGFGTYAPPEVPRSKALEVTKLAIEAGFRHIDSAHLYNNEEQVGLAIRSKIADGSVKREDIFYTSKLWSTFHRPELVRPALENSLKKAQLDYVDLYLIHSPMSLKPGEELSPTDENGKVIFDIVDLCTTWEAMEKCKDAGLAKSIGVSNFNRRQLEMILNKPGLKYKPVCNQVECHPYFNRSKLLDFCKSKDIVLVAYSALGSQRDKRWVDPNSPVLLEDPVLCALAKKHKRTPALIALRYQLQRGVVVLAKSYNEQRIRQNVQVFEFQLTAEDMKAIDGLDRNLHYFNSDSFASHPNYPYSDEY
The assay can be described thus: Inhibition of human 17beta HSD5 in HEK cells. The format is cell-based, HEK293.

Assay [2] has as its target T1, Aldo-keto reductase family 1 member C3. The assay can be described thus: Inhibition of human 17beta HSD5 mediated conversion of testosterone to delta-4-androstene-3,17-dione.

SMILES strings stand for the structures.

For the compound `COCCOc1cc2c(cc1OC(N)=O)[C@H]1CC[C@@]3(C)[C@@H](CC[C@@]34CCC(C)(C)C(=O)O4)[C@@H]1CC2`, in assay [1], half-maximal inhibition (IC50) was put at 9.5 nM.
In the case of `CC1(C)CC[C@@]2(CC[C@H]3[C@@H]4CCc5cc(C(N)=O)ccc5[C@H]4CC[C@@]32C)OC1=O`, in assay [1], the IC50 (commonly the concentration that inhibits the measured activity by half) stood at 3.2 nM. Moreover, the affinity in assay [2] corresponds to a Ki of 6.9 nM.
Compound `COCCOc1cc2c(cc1C#N)[C@H]1CC[C@@]3(C)[C@@H](CC[C@@]34CCC(C)(C)C(=O)O4)[C@@H]1CC2` [EM1396] displayed an IC50 in assay [1] of 13 nM.

For the origin of these results see ChEMBL document CHEMBL1156426, “Structure-based inhibitor design for an enzyme that binds different steroids: a potent inhibitor for human type 5 17beta-hydroxysteroid dehydrogenase” (J Biol Chem, 2007).
